Measured values: patent US8058256B2, “Polymeric carrier for delivery of small interfering RNA” (University of Utah Research Foundation, priority 2006, dated 2011)

Test system: VEGF expression in CT-26 colon adenocarcinoma cells
Assay: VEGF silencing in vitro, mouse VEGF ELISA of cell supernatants
Assay type: cell-based
Settings: bPEI carrier; N/P ratio of 10; CT-26 cells; 0.7 μg siRNA/well
Protocol: To evaluate the biological significance of these systems, the inhibitory activity of siRNA against the expression of VEGF in CT-26 colon adenocarcinoma cells was investigated.
CT-26 cells were seeded in 24-well tissue culture plates at 8×10^4 cells per well in 10% FBS containing RPMI 1640 medium. Cells achieved 80% confluency within 24 h, after which they were transfected with cationic substance/siRNA complexes prepared at N/P ratios ranging from 5 to 40. The total amount of siRNA loaded was maintained constant at 0.7 μg/well. The transfection was carried out in the absence of serum. The cells were allowed to incubate at 37° C. in the presence of complexes for 4 h in a CO2 incubator, followed by replacement of 1 ml of RPMI 1640 containing 10% FBS. Thereafter, the cells were incubated at 37° C. for an additional 24 h. […]
The amount of mouse VEGF produced in medium was determined using a mouse VEGF ELISA kit (R&D Systems Inc., Minneapolis, Minn.) according to the recommendation of the manufacturer. […] The enzymatic reaction was stopped by adding 100 μl of stop solution to the wells, and absorbance was determined by spectrophotometry at 450 nm. The VEGF concentration in the cell supernatant samples was calculated based on the standard curve.
The inhibitory effect was evaluated from the relative silencing of the VEGF assayed by ELISA.

“scVEGF: scrambled VEGF siRNA, SEQ ID NO:3 and SEQ ID NO:4; in b74 tested as complex with bPEI (chain 1 GAUAGCAAUGACGAAUGCGUATT; chain 2 UACGCAUUCGUCAUUGCUAUCTT; chemistry not given here)” was tested, and the “silencing of VEGF expression (ELISA)” value was “no effect”.
